US8076338B2, “Kinase modulators and methods of use” (Exelixis, Inc., priority 2004, dated 2011)
Read-outs that look alike come from different tables or passages of the source.

Tests used:
AktK = AktK (Homo sapiens, UniProt P31749); assay: Luciferase-coupled chemiluminescence kinase assay (ATP consumption); assay type: biochemical; conditions: read-out: AKT-1 IC50
How it was run: (§1)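 Enzyme at 2.5-5 nM was preincubated 30 min at room temperature with compound in Tris pH 7.5, MgCl2, TX-100, DTT, then reacted with ATP for 3 h at ambient temperature. Remaining ATP was quantified by luciferase-luciferin chemiluminescence, with consumption kept at 25-60%; […].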

p70S6K = p70S6K (Homo sapiens, UniProt P23443); assay: as above; assay type: biochemical
Sequence of p70S6K (P23443 whole entry): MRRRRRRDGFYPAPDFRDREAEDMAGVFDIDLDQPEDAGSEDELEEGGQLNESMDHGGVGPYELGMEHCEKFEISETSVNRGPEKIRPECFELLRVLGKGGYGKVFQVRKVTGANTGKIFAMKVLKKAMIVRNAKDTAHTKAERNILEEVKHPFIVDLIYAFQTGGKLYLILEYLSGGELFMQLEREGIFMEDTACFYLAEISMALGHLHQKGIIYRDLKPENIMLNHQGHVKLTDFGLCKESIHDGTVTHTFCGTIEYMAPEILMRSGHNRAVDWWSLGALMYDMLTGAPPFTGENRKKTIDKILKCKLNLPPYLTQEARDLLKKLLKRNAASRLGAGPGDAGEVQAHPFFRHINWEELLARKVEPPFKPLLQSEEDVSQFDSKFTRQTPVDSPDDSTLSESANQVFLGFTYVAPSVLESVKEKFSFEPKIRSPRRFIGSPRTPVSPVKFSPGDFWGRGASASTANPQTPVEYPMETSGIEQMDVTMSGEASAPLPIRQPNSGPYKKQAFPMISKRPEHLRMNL
How it was run: as §1

Sequence of AktK (P31749 whole entry): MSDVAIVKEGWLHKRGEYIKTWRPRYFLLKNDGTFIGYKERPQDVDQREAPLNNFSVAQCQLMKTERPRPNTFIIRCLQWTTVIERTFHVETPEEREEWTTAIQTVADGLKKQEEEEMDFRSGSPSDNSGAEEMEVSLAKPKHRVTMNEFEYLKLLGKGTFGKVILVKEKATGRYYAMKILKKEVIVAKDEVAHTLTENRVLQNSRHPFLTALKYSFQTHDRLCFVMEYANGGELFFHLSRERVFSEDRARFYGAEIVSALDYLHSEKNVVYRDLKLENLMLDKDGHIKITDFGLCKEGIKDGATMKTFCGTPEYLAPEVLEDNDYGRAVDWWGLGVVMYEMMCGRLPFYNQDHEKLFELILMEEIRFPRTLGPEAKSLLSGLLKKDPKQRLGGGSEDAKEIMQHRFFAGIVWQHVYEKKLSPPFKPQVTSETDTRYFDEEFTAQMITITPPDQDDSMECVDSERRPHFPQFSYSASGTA

IC50 (AktK; Table 1, class symbols per key)	IC50 (p70S6K; Table 1, class symbols per key)	IC50 (AktK)	IC50 (p70S6K)	Compound
–	–	1000 to 10000 nM	< 100 nM	CCc1n[nH]c2ncnc(N3CCN(c4cc(Cl)cc(C(=O)OCCN(C)C)c4OC)CC3)c12 [Entry 376, 2-(dimethylamino)ethyl 5-chloro-3-[4-(3-ethyl-1H-pyrazolo[3,4-d]pyrimidin-4-yl)piperazin-1-yl]-2-(methyloxy)benzoate]
≥ 10000 nM	100 to 1000 nM	–	–	CCc1ccccc1N1CCN(c2ncnc3[nH]nc(Br)c23)CC1 [Entry 105, 3-bromo-4-[4-(2-ethylphenyl)piperazin-1-yl]-1H-pyrazolo[3,4-d]pyrimidine]
< 100 nM	< 100 nM	–	–	Cc1c(NCCN2CCCC2)cc(OCC(F)(F)F)cc1N1CCN(c2ncnc3[nH]nc(Br)c23)CC1 [Entry 285, 3-[4-(3-bromo-1H-pyrazolo[3,4-d]pyrimidin-4-yl)piperazin-1-yl]-2-methyl-N-(2-pyrrolidin-1-ylethyl)-5-[(2,2,2-trifluoroethyl)oxy]aniline]
< 100 nM	< 100 nM	–	–	Cc1c(OCCCN2CCCC2)cc(Cl)cc1N1CCN(c2ncnc3[nH]nc(Br)c23)CC1 [Entry 84, 3-bromo-4-(4-{5-chloro-2-methyl-3-[(3-pyrrolidin-1-ylpropyl)oxy]phenyl}piperazin-1-yl)-1H-pyrazolo[3,4-d]pyrimidine]
≥ 10000 nM	100 to 1000 nM	–	–	Cc1cccc(COc2cccc(N3CCN(c4ncnc5[nH]nc(Br)c45)CC3)c2)c1 [Entry 141, 3-bromo-4-[4-(3-{[(3-methylphenyl)methyl]oxy}phenyl)piperazin-1-yl]-1H-pyrazolo[3,4-d]pyrimidine]
< 100 nM	< 100 nM	–	–	CCCC(O)c1cc(NCCN2CCCC2)c(C)c(N2CCN(c3ncnc4[nH]nc(Br)c34)CC2)c1 (stereo not shown) [Entry 286, 1-{3-[4-(3-bromo-1H-pyrazolo[3,4-d]pyrimidin-4-yl)piperazin-1-yl]-4-methyl-5-[(2-pyrrolidin-1-ylethyl)amino]phenyl}butan-1-ol]
≥ 10000 nM	< 100 nM	–	–	CCc1n[nH]c2ncnc(N3CCN(c4nccc5ccccc45)CC3)c12 [Entry 102, 1-[4-(3-ethyl-1H-pyrazolo[3,4-d]pyrimidin-4-yl)piperazin-1-yl]isoquinoline]
1000 to 10000 nM	< 100 nM	–	–	COc1cccc(N2CCN(c3ncnc4[nH]nc(Br)c34)CC2)c1 [Entry 65, 3-bromo-4-{4-[3-(methyloxy)phenyl]piperazin-1-yl}-1H-pyrazolo[3,4-d]pyrimidine]
≥ 10000 nM	100 to 1000 nM	–	–	CCc1n[nH]c2ncnc(N3CCN(c4cc(C(F)(F)F)ccn4)CC3)c12 [Entry 116, 3-ethyl-4-{4-[4-(trifluoromethyl)pyridin-2-yl]piperazin-1-yl}-1H-pyrazolo[3,4-d]pyrimidine]
< 100 nM	< 100 nM	–	–	CCN1CCN(CCCOc2cc(Cl)cc(N3CCN(c4ncnc5[nH]nc(Br)c45)CC3)c2C)CC1 [Entry 86, 3-bromo-4-[4-(5-chloro-3-{[3-(4-ethylpiperazin-1-yl)propyl]oxy}-2-methylphenyl)piperazin-1-yl]-1H-pyrazolo[3,4-d]pyrimidine]
–	–	1000 to 10000 nM	1000 to 10000 nM	COc1cccc(-c2n[nH]c3ncnc(N4CCN(c5cc(Cl)ccc5C)CC4)c23)c1 [Entry 365, 4-[4-(5-chloro-2-methylphenyl)piperazin-1-yl]-3-[3-(methyloxy)phenyl]-1H-pyrazolo[3,4-d]pyrimidine]
< 100 nM	< 100 nM	–	–	Cc1c(CCCN2CCCCC2)cc(Cl)cc1N1CCN(c2ncnc3[nH]nc(Br)c23)CC1 [Entry 27, 3-bromo-4-{4-[5-chloro-2-methyl-3-(3-piperidin-1-ylpropyl)phenyl]piperazin-1-yl}-1H-pyrazolo[3,4-d]pyrimidine]

The remaining lines, values behind:

Compound	IC50 (AktK; Table 1, class symbols per key)	IC50 (p70S6K; Table 1, class symbols per key)	IC50 (AktK)	IC50 (p70S6K)
CCN(CC)CCCc1cc(Cl)cc(N2CCN(c3ncnc4[nH]nc(C(F)(F)F)c34)CC2)c1C [Entry 87, 3-(5-chloro-2-methyl-3-{4-[3-(trifluoromethyl)-1H-pyrazolo[3,4-d]pyrimidin-4-yl]piperazin-1-yl}phenyl)-N,N-diethylpropan-1-amine]	100 to 1000 nM	< 100 nM	–	–
Cc1c(NCCN2CCCC2)cc(C(=O)O)cc1N1CCN(c2ncnc3[nH]nc(Br)c23)CC1 [Entry 234, 3-[4-(3-bromo-1H-pyrazolo[3,4-d]pyrimidin-4-yl)piperazin-1-yl]-4-methyl-5-[(2-pyrrolidin-1-ylethyl)amino]benzoic acid]	1000 to 10000 nM	< 100 nM	–	–
Cc1c(NCCN2CCCC2)cc(OC(C)C)cc1N1CCN(c2ncnc3[nH]nc(Br)c23)CC1 [Entry 220, 3-[4-(3-bromo-1H-pyrazolo[3,4-d]pyrimidin-4-yl)piperazin-1-yl]-2-methyl-5-[(1-methylethyl)oxy]-N-(2-pyrrolidin-1-ylethyl)aniline]	< 100 nM	< 100 nM	–	–
Cc1ccc(Cl)cc1N1CCN(c2ncnc3[nH]nc(-c4ccc(O)cc4)c23)CC1 [Entry 331, 4-{4-[4-(5-chloro-2-methylphenyl)piperazin-1-yl]-1H-pyrazolo[3,4-d]pyrimidin-3-yl}phenol]	–	–	1000 to 10000 nM	< 100 nM
Brc1n[nH]c2ncnc(N3CCN(c4ccccn4)CC3)c12 [Entry 63, 3-bromo-4-(4-pyridin-2-ylpiperazin-1-yl)-1H-pyrazolo[3,4-d]pyrimidine]	1000 to 10000 nM	100 to 1000 nM	–	–
Cc1c(NCCN2CCCC2)cc(C(=O)N(C)C)cc1N1CCN(c2ncnc3[nH]nc(Br)c23)CC1 [Entry 198, 3-[4-(3-bromo-1H-pyrazolo[3,4-d]pyrimidin-4-yl)piperazin-1-yl]-N,N,4-trimethyl-5-[(2-pyrrolidin-1-ylethyl)amino]benzamide]	100 to 1000 nM	< 100 nM	–	–
Cc1c(NCCN2CCCC2)cc(COCC(F)(F)F)cc1N1CCN(c2ncnc3[nH]nc(Br)c23)CC1 [Entry 280, 3-[4-(3-bromo-1H-pyrazolo[3,4-d]pyrimidin-4-yl)piperazin-1-yl]-2-methyl-N-(2-pyrrolidin-1-yl-ethyl)-5-{[(2,2,2-trifluoroethyl)oxy]methyl}aniline]	< 100 nM	< 100 nM	–	–
COc1cc(NCCN2CCCC2)c(C)c(N2CCN(c3ncnc4[nH]nc(Br)c34)CC2)c1 [Entry 255, 3-[4-(3-bromo-1H-pyrazolo[3,4-d]pyrimidin-4-yl)piperazin-1-yl]-2-methyl-5-(methyloxy)-N-(2-pyrrolidin-1-ylethyl)aniline]	100 to 1000 nM	< 100 nM	–	–
CCN(CC)CCCOc1cc(Cl)cc(N2CCN(c3ncnc4[nH]nc(Br)c34)CC2)c1C [Entry 83, 3-({3-[4-(3-bromo-1H-pyrazolo[3,4-d]pyrimidin-4-yl)piperazin-1-yl]-5-chloro-2-methylphenyl}oxy)-N,N-diethylpropan-1-amine]	< 100 nM	< 100 nM	–	–
Cc1c(NCCN2CCCC2)cc(OCCC(C)C)cc1N1CCN(c2ncnc3[nH]nc(Br)c23)CC1 [Entry 206, 3-[4-(3-bromo-1H-pyrazolo[3,4-d]pyrimidin-4-yl)piperazin-1-yl]-2-methyl-5-[(3-methylbutyl)oxy]-N-(2-pyrrolidin-1-ylethyl)aniline]	< 100 nM	< 100 nM	–	–
4-[4-(5-chloro-2-methylphenyl)piperazin-1-yl]-3-(2-methylpropyl)-1H-pyrazolo[3,4-d]pyrimidine [Entry 355]	–	–	1000 to 10000 nM	< 100 nM
